Measured values: ChEMBL document CHEMBL3102801, “Synthesis and antiproliferative activity of new derivatives containing the polycyclic system 5,7:7,13-dimethanopyrazolo[3,4-b]pyrazolo[3',4':2,3]azepino[4,5-f]azocine” (Eur J Med Chem, 2014)
Active and inactive are the calls of the source. The calls are words filed in the database; no cut-off is given here.

What was measured:
HCT-116 [1] = assay: Cell cycle arrest in human HCT116 cells assessed as accumulation of G2-M phase at 10 uM after 48 hrs using propidium iodide staining by flow cytometric analysis (reference value: 19.2%); format: functional
MDA-MB-435 = assay: Growth inhibition of human MDA-MB-435 cells after 48 hrs by sulforhodamine B assay; format: functional; conditions: MDA-MB-435, 48 h
[2] = target: T1, Retinoblastoma-associated protein (Homo sapiens) (UniProt P06400); assay: Inhibition of pRb p110 phosphorylation in human MDA-MB-231 cells at 5 to 10 uM after 48 hrs by Western blotting relative to unphosphorylated p105; format: cell-based
T1 sequence (whole entry): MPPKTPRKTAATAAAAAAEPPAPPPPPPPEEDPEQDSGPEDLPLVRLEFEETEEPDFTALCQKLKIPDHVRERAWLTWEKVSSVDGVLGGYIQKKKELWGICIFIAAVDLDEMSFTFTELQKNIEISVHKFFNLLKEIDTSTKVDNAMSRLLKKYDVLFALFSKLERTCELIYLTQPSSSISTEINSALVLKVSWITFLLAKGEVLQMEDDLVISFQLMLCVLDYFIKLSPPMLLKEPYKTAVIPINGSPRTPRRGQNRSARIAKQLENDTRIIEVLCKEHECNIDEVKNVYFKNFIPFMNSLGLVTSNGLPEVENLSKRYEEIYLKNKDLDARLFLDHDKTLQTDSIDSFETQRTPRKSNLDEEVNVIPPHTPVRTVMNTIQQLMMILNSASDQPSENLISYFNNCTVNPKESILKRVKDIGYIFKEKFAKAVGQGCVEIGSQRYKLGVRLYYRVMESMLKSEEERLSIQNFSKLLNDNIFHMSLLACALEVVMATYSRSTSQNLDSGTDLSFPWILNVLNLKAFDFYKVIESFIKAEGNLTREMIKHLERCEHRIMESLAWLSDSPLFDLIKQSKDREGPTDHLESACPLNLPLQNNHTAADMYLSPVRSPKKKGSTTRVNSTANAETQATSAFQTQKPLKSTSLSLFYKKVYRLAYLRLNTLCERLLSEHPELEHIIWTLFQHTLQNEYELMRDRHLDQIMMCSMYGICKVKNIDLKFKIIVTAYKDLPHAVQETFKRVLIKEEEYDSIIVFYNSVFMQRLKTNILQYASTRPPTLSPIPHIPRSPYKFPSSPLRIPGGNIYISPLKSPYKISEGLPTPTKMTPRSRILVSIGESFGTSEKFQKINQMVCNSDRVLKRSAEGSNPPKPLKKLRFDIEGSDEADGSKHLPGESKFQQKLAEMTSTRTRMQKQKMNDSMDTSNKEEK

DU-145 = assay: Growth inhibition of human DU145 cells after 48 hrs by sulforhodamine B assay; format: functional; conditions: DU-145, 48 h
[3] = Therapeutic index, ratio of IC50 for human HeDe cells to IC50 for human MDA-MB-231 cells; format: cell-based; conditions: HeDe cells versus MDA-MB-231 cells, read-out: TI
PC-3 = assay: Growth inhibition of human PC3 cells after 48 hrs by sulforhodamine B assay; format: functional; conditions: PC-3, 48 h
[4] = Growth inhibition of human HCC2998 cells after 48 hrs by sulforhodamine B assay; format: functional; conditions: HCC 2998, 48 h
MDA-MB-231 [5] = assay: Cell cycle arrest in human MDA-MB-231 cells assessed as accumulation of G0-G1 phase at 5 uM after 48 hrs using propidium iodide staining by flow cytometric analysis (reference value: 42.2%); format: functional
SK-MEL-28 = assay: Growth inhibition of human SK-MEL-28 cells after 48 hrs by sulforhodamine B assay; format: functional; conditions: SK-MEL-28, 48 h
HCT-116 [6] = assay: Cell cycle arrest in human HCT116 cells assessed as accumulation of G2-M phase at 5 uM after 48 hrs using propidium iodide staining by flow cytometric analysis (reference value: 19.2%); format: functional
[7] = Growth inhibition of human OVCAR4 cells after 48 hrs by sulforhodamine B assay; format: functional; conditions: OVCAR-4, 48 h
HL-60(TB) = assay: Growth inhibition of human HL-60(TB) cells after 48 hrs by sulforhodamine B assay; format: functional; conditions: HL-60, 48 h
CCRF-CEM = assay: Growth inhibition of human CCRF-CEM cells after 48 hrs by sulforhodamine B assay; format: functional
CAKI-1 = assay: Growth inhibition of human CAKI-1 cells after 48 hrs by sulforhodamine B assay; format: functional; conditions: CAKI-1, 48 h
SK-MEL-2 = assay: Growth inhibition of human SK-MEL-2 cells after 48 hrs by sulforhodamine B assay; format: functional; conditions: SK-MEL-2, 48 h
K562 = assay: Growth inhibition of human K562 cells after 48 hrs by sulforhodamine B assay; format: functional; conditions: K562, 48 h
SW-620 = assay: Growth inhibition of human SW620 cells after 48 hrs by sulforhodamine B assay; format: functional; conditions: SW-620, 48 h
[8] = Growth inhibition of human OVCAR5 cells after 48 hrs by sulforhodamine B assay; format: functional; conditions: OVCAR-5, 48 h
HCT-116 [9] = assay: Growth inhibition of human HCT116 cells after 48 hrs by sulforhodamine B assay; format: functional; conditions: HCT-116, 48 h
MDA-MB-231 [10] = assay: Growth inhibition of human MDA-MB-231 cells after 48 hrs by sulforhodamine B assay; format: functional; conditions: MDA-MB-231, 48 h
HCT-116 [11] = assay: Cell cycle arrest in human HCT116 cells assessed as accumulation of sub-G0-G1 phase at 10 uM after 48 hrs using propidium iodide staining by flow cytometric analysis (reference value: 15.2%); format: functional
HOP-62 = assay: Growth inhibition of human HOP62 cells after 48 hrs by sulforhodamine B assay; format: functional; conditions: HOP-62, 48 h
NCI-H522 = assay: Growth inhibition of human NCI-H522 cells after 48 hrs by sulforhodamine B assay; format: functional; conditions: NCI-H522, 48 h
MCF7 = assay: Growth inhibition of human MCF7 cells after 48 hrs by sulforhodamine B assay; format: functional; conditions: MCF7, 48 h
[12] = target: T1, Retinoblastoma-associated protein (Homo sapiens); assay: Inhibition of pRb p110 phosphorylation in human MDA-MB-231 cells after 48 hrs by Western blotting; format: cell-based
Malme-3M = assay: Growth inhibition of human MALME-3M cells after 48 hrs by sulforhodamine B assay; format: functional
UACC-62 = assay: Growth inhibition of human UACC62 cells after 48 hrs by sulforhodamine B assay; format: functional; conditions: UACC-62, 48 h
786-0 = assay: Growth inhibition of human 786-0 cells after 48 hrs by sulforhodamine B assay; format: functional; conditions: 786-0, 48 h
M14 = assay: Growth inhibition of human M14 cells after 48 hrs by sulforhodamine B assay; format: functional; conditions: M14, 48 h
SNB-19 = assay: Growth inhibition of human SNB19 cells after 48 hrs by sulforhodamine B assay; format: functional; conditions: SNB-19, 48 h
NCI-H460 = assay: Growth inhibition of human NCI-H460 cells after 48 hrs by sulforhodamine B assay; format: functional; conditions: NCI-H460, 48 h
MDA-MB-231 [13] = assay: Cell cycle arrest in human MDA-MB-231 cells assessed as accumulation of sub-G0-G1 phase at 10 uM after 48 hrs using propidium iodide staining by flow cytometric analysis (reference value: 8.4%); format: functional

For `C=C1c2c(C)nn(-c3ccc(OC)cc3)c2N(C)C23CC1C1(C)c4c(C)nn(-c5ccc(OC)cc5)c4N(C)C(C)(CC12)C3` (configuration not stated), the Activity (HCT-116 [1]) was 10.3%, the GI50 (MDA-MB-435) was 3.4 µM and the inhibition [2] was “Active”. For the same compound, the GI50 (DU-145) was 4.38 µM, the selectivity ratio [3] was 24.4 and the GI50 (PC-3) was 1.75 µM. It also gave a GI50 [4] of 4.07 µM, an Activity (MDA-MB-231 [5]) of 53.5% and a GI50 (SK-MEL-28) of 5.86 µM. It also gave an Activity (HCT-116 [6]) of 12.3%, a GI50 [7] of 3.56 µM and a GI50 (HL-60(TB)) of 2.54 µM. It also gave a GI50 (CCRF-CEM) of 3.41 µM, a GI50 (CAKI-1) of 2.67 µM and a GI50 (SK-MEL-2) of 3.23 µM. The GI50 (K562) was 3.6 µM, the GI50 (SW-620) was 3.63 µM and the GI50 [8] was 11.3 µM. For the same compound, the GI50 (HCT-116 [9]) was 2.82 µM, the GI50 (MDA-MB-231 [10]) was 3.11 µM and the Activity (HCT-116 [11]) was 13.5%. For the same compound, the GI50 (HOP-62) was 4.28 µM, the GI50 (NCI-H522) was 2.77 µM and the GI50 (MCF7) was 2.69 µM. The inhibition [12] was “Dose-dependent effect”, the GI50 (Malme-3M) was 3.24 µM and the GI50 (UACC-62) was 2.86 µM. For the same compound, the GI50 (786-0) was 4.23 µM, the GI50 (M14) was 3.88 µM and the GI50 (SNB-19) was 4.34 µM. For the same compound, the GI50 (NCI-H460) was 2.49 µM and the Activity (MDA-MB-231 [13]) was 4.6%.
